Measurements as given in patent US20040171680A1, “Treating Syndrome X with substituted tetralins and indanes” (priority 2002, published 2004).
Where two headings read alike, the source gives them in different places.

Assays:
[1] = biological target: T1, PPARα (Rattus norvegicus, UniProt P37230); assay: HD bDNA Assay (HD gene induction); assay type: cell-based; details: in section F; target not named there, values match the PPARα column; read-out: EC50
T1 construct: H4IIE rat hepatoma cell line was obtained from ATCC; host or cells: H4IIE rat hepatoma cells
T1 sequence (P37230 1-468): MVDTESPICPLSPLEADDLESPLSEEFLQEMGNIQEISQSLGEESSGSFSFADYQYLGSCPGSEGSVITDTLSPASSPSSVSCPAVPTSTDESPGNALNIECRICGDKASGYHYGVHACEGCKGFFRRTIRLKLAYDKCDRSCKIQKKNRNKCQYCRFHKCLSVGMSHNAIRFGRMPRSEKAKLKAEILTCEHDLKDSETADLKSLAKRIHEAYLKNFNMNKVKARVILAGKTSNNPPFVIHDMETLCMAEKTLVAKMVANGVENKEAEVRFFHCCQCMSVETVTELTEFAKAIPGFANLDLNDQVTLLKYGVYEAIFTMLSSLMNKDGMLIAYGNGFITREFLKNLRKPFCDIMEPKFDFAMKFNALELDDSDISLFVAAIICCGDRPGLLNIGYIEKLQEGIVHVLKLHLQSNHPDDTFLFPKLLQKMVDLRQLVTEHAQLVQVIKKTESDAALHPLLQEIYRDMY
Procedure, shortened: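 H4IIE rat hepatoma cells (~100,000/well) treated 24 hours at 37° C in low-serum medium (5% charcoal/dextran-treated calf serum) with compounds. HD mRNA quantified by branched DNA luminescence assay; EC50's from sigmoidal non-linear regression.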

[2] = biological target: T2, PPARδ (Homo sapiens, UniProt Q03181); assay: Transfection Assay for PPARδ Receptors (PPAR-Gal4 / Gal4-Luciferase reporter in HEK293 cells); assay type: cell-based; details: fold induction; PPARδ standard: FI = 36.1
T2 construct: a Gal4-Luciferase reporter is co-transfected
T2 sequence (Q03181 171-441 limits assumed): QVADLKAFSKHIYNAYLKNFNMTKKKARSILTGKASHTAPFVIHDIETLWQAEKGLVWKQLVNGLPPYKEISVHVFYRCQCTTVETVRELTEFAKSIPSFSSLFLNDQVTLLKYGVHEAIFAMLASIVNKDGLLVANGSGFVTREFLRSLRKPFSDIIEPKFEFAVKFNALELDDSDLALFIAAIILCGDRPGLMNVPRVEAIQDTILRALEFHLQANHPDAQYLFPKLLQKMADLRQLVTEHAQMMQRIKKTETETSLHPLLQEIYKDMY
Procedure, shortened: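 HEK293 cells co-transfected with PPAR-Gal4 receptor and Gal4-luciferase reporter, then moved into 5% charcoal-treated FBS medium. Compounds applied for 24 h at 37 °C, 5% CO2; luciferase activity read with Steady-Glo.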

[3] = biological target: T3, PPARγ (Homo sapiens, UniProt P37231); assay: aP2 Assay for PPAR gamma Agonists (bDNA aP2 mRNA in preadipocytes); assay type: cell-based; details: fold induction; PPARγ standard: FI = 70.3
T3 construct: Following the challenge of the preadipocytes, cells may be lysed with lysis buffer; endogenous in cells; host or cells: preadipocytes
T3 sequence (P37231 1-505): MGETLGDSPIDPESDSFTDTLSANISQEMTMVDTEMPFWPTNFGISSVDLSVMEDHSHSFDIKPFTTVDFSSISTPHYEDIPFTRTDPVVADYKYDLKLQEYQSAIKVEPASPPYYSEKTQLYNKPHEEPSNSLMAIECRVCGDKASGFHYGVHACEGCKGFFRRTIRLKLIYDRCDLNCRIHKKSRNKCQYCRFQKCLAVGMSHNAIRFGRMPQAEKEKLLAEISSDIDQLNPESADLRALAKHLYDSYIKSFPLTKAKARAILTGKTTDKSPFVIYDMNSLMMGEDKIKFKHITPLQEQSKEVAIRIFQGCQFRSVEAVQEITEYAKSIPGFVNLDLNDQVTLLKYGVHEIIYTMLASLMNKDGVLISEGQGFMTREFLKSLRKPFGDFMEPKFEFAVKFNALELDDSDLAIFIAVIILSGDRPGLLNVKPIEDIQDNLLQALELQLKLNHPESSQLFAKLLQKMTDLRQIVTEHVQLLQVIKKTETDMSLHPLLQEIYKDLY
Description: aP2 Assay for PPAR gamma Agonists
The procedure is described in detail in Burris et al., Molecular Endocrinology, 1999, 13:410, which is hereby incorporated by reference in its entirety, and aP2 assay results of agonist intrinsic activity may be presented as fold increase over vehicle in induction of aP2 mRNA production.
Twenty-four hours after the initial seeding of the 96-well plates by hand (around 20,000/well), the differentiation assay may be initiated. Medium may be removed and replaced with […] of differentiation medium containing vehicle (DMSO) or test compounds. Cells may be returned to incubator for 24 hours culture. At the termination of the challenge, medium may be removed and 100 ul of lysis buffer may be added to initiate the bDNA aP2 mRNA assay. The branched DNA assay may be performed according to the manufacturer's protocol (Bayer Diagnostics; Emeryville, Calif.). Result may be expressed as the fold increase of aP2 mRNA production activated over vehicle controls. EC50's and Emax may be determined by non-linear regression with a sigmoidal fit curve.
Following the challenge of the preadipocytes, cells may be lysed with lysis buffer (Bayer Diagnostics) containing the aP2 oligonucleotides. After a 15 minute incubation at 53° C. or 30 minutes at 37° C. incubator, 70 ul of the lysis buffer from each well may be added to a corresponding capture well (preincubated with 70 ul of blocking buffer (Bayer Diagnostics)). The capture plate may be incubated overnight at 53° C. in a plate incubator (Bayer Diagnostics). After this incubation, the bDNA and labeled probes may be annealed as directed by the manufacturer. Following a 30-minute incubation with the luminescent alkaline phosphatase substrate, dioxitane, the luminescence may be quantitated in a Dynex MLX microtiter plate luminometer. Oligonucleotide probes designed to anneal to the aP2 mRNA and function in the bDNA mRNA detection system are designed with ProbeDesigner software (Bayer Diagnostics). This software package analyzes a target sequence of interest with a series of algorithms in order to determine which regions of the sequence can perform as locations for capture, label, or spacer probe annealing. The sequences of the oligonucleotides are as follows: […]

[4] = tested on: db/db mice; assay: Oral dosing in female db/db mice; assay type: in vivo; details: Mus musculus, 1.0 mpk, % change compared to vehicle
Experimental: The compound was prepared as suspensions in 0.5% hydroxypropylmethylcellulose (Dow Chemical, Midland, Mich.). The dosing volume was 10 mL/kg of body weight. […] Body weight was measured in the mornings on Day 1, prior to dosing, and on Day 12 before bleeding. 18-24 hours after the final dose for each group, the mice were anesthetized with CO2/O2 (70:30) and bled by retro-orbital sinus puncture into micro-tubes containing clog activator and then put in ice. The serum samples were prepared by centrifugation. Serum glucose and triglycerides were determined by using COBAS Mira Plus blood chemistry analyzer (Roche Diagnostics, N.J.). Serum insulin was measured by using ALPCO insulin ELISA kit.
Statistical analysis was performed using the program Prism (Graphpad, Monrovia, Calif.) and performing one-way ANOVA with a Dunnet's multiple comparison test.

[5] = Comparison of (S) and (R) isomer activity (test not stated); details: chiral center on C-2 of the indane ring
[6] = 120 h, 5 day oral dosing, read-out: Δ BW
[7] = 120 h, 5 day oral dosing, read-out: Δ Plasma Glucose
[8] = 120 h, 5 day oral dosing, read-out: Δ Plasma Insulin
[9] = 120 h, 5 day oral dosing, read-out: Δ Plasma TG

Structure (SMILES) | EC50 [1] [nM] | PPARδ FI [2] | PPARγ FI [3] | change in vivo at 1 mg/kg [4, 6] [%] | change in vivo at 1 mg/kg ([4]; 264 h, 11 day oral dosing, read-out: Δ Plasma Glucose) [%] | change in vivo at 1 mg/kg ([4]; 264 h, 11 day oral dosing, read-out: Δ Plasma Insulin) [%] | change in vivo at 1 mg/kg ([4]; 264 h, 11 day oral dosing, read-out: Δ Plasma TG) [%] | change in vivo at 1 mg/kg [4, 7] [%] | change in vivo at 1 mg/kg [4, 8] [%] | change in vivo at 1 mg/kg [4, 9] [%] | change in vivo at 1 mg/kg ([4]; 264 h, 11 day oral dosing, read-out: Δ BW) [%] | activity of the (S) isomer compared with the (R) isomer [5]
CCN(C(=O)Nc1ccc(OC(F)(F)F)cc1)C1Cc2ccc(SC(C)(C)C(=O)O)cc2C1 (centres unmarked) [Example 2, 2-{2-[1-Ethyl-3-(4-trifluoromethoxyphenyl)ureido]indan-5-ylsulfanyl}-2-methylpropionic acid] | 27 | 4.2 | 0.24 | -59 | -60 | -53 | -56 | – | – | – | – | –
CCN(C(=O)Nc1ccc(OC(F)(F)F)cc1)[C@H]1Cc2ccc(SC(C)(C)C(=O)O)cc2C1 [Example 3, (S)-2-{2-[1-Ethyl-3-(4-trifluoromethoxyphenyl)ureido]indan-5-ylsulfanyl}-2-methylpropionic acid] | – | – | – | – | – | – | – | -66 | -69 | -66 | -136 | the (S) isomer is more active than the (R) isomer
CCCCCN(C(=O)Nc1ccc(SC(F)(F)F)cc1)C1Cc2ccc(SC(C)(C)C(=O)O)cc2C1 (centres unmarked) [Example 5, 2-Methyl-2-{2-[1-pentyl-3-(4-trifluoromethylsulfanylphenyl)ureido]indan-5-ylsulfanyl}propionic acid] | 53 | 2.5 | 4.0 | 56 | – | – | – | -31 | -43 | -19 | – | –
CCN(C(=O)Nc1ccc(C(C)C)cc1)C1Cc2ccc(SC(C)(C)C(=O)O)cc2C1 (centres unmarked) [Example 6, 2-{2-[1-Ethyl-3-(4-isopropylphenyl)ureido]indan-5-ylsulfanyl}-2-methylpropionic acid] | 56 | 3.6 | 1.9 | -54 | – | – | – | -49 | -19 | -50 | – | –
CCN(C(=O)Nc1ccc(N(C)C)cc1)C1Cc2ccc(SC(C)(C)C(=O)O)cc2C1 (centres unmarked) [Example 7, 2-{2-[3-(4-Dimethylaminophenyl)-1-ethylureido]indan-5-ylsulfanyl}-2-methylpropionic acid] | 75 | 0.8 | 0 | -27 | – | – | – | -44 | -40 | -63 | – | –
CCCCCN(C(=O)Nc1ccc(OC(F)(F)F)cc1)C1Cc2ccc(SC(C)(C)C(=O)O)cc2C1 (centres unmarked) [Example 8, 2-Methyl-2-{2-[1-pentyl-3-(4-trifluoromethoxyphenyl)ureido]indan-5-ylsulfanyl}-2-methylpropionic acid] | 73 | 5.9 | 1.9 | -2 | – | – | – | -28 | -38 | -27 | – | –
CCCCCN(C(=O)Nc1ccc(N(C)C)cc1)C1Cc2ccc(SC(C)(C)C(=O)O)cc2C1 (centres unmarked) [Example 9, 2-{2-[3-(4-Dimethylaminophenyl)-1-pentylureido]indan-5-ylsulfanyl}-2-methylpropionic acid] | 131 | 1.0 | 2.9 | 0.05 | – | – | – | -13 | -40 | -6 | – | –
